Assay results reported in patent US9127038B2, “Kisspeptide-pentasaccharide conjugates” (Merck Sharp & Dohme Corp., priority 2011, dated 2015).
Structures can show the parent of a compound that is named as a salt. Where two headings read alike, the source gives them in different places.

Assays:
[1] = cited from earlier work
human KISS-receptor = molecular target: T1, human KISS-receptor (Homo sapiens, UniProt Q969F8); test: NFAT-regulated luciferase reporter gene assay in CHO-k1 cells, agonist activity; format: cell-based
T1 construct: expressed in transfected cells; host or cells: CHO-k1 cells that also express mitochondrially targeted aequorin, Gα16 and an NFAT-luciferase reporter
T1 sequence (Q969F8 whole entry): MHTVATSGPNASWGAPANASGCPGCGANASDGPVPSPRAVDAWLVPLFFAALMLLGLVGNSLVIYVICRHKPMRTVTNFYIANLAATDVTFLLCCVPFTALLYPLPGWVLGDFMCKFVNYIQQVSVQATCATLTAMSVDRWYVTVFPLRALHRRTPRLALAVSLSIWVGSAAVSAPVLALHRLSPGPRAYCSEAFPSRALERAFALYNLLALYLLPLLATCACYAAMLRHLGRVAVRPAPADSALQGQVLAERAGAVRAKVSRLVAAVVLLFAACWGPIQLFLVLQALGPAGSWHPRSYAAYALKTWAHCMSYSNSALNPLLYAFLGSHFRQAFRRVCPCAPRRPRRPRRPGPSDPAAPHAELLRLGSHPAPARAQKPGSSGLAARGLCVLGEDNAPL
Description: CHO-k1 cells were used that expressed the mitochondrially targeted aequorine and Gα16 (from Euroscreen, Brussels, Belgium), a Nuclear Factor of Activated T-cells-responsive element (NFAT) under the control of a promoter directing the expression of a firefly luciferase reporter gene (pNFAT-TALuc obtained from Clontech, Mountain View, Calif.), and the human GPR54-R Hygro(+)-hGPR54WT c4; MSD). These cells were cultured in Dulbecco's Modified Eagle Medium: Nutrient Mixture F-12 (DMEM/F12) (Invitrogen, Carlsbad, Calif.), supplemented with 10% (vol/vol) filtered bovine serum (Hyclone, Thermo Fisher Scientific, Waltham, Mass.), 100 U/ml penicillin G, 100 μg/ml streptomycin, 400 μg/ml Geneticin and 400 μg/ml Hygromycin (Invitrogen). […] Kisspeptin-10 was used as a standard. […] When the conjugates were tested in the presence of a final percentage of 20% human serum, 10 μl assay medium containing 60% human serum (Sigma-Aldrich, #H4522) was added to the wells. In the absence of human serum, 10 μl of assay medium was added. Cells were harvested and diluted to a concentration of 7.5E5 cells/ml in assay medium without 0.1% BSA. 10 μl of cell solution was added to the compound wells. After incubation for 4 hours in a humidified atmosphere at 5% CO2 and 37° C., the plate was left at room temperature for 30 minutes. Subsequently, 15 μl of Steadylite™ solution (PerkinElmer, Boston, Mass.) was added and the cells, protected from light, were allowed to lyse for 30 min at room temperature. Luminescence, indicated as relative luminescence units (RLU), was measured on an Envision Multilabel reader (PerkinElmer).

[2] = In vitro stability in human serum (LC/MS/MS); conditions: in words
Description: Test compound is added to 1.5 mL human serum in a 96-wells deepwell plate in a final concentration of 750 nM. The compound is mixed and immediately thereafter a 100 μl sample is harvested in a 96-wells 2D-tuberack (T=0 sample). The 2 D-tubes are closed with rubber tube caps and the sample plate is stored at −20° CF. in the freezer. The deepwell plate is put into an incubator which was set at humidified (95%) atmosphere at 5-7% CO2 and 37° C. for an incubation period of maximum 240 h. During this incubation period, samples of 100 μl are collected on various time intervals, dependent on the test compound used; time points 0, 1, 2, 3, 6, 24, 48, 72 h in case of Kisspeptides and 0, 3, 6, 24, 48, 72, 168, 240 h in case of kisspeptide-pentasaccharide conjugates. Sample plates are put on ice in case of sampling and stored at −20° C. until analysis by LC/MS/MS.
For LC-MS/MS analysis, the compounds are separated over an XTerra RP8 column and using a gradient mobile phase of ammonium acetate buffer and acetonitrile at a fixed column temperature. MS/MS detection is done with a triple quadrupole mass spectrometer and employing negative ion electrospray ionization. The mass spectrometer is set up to achieve a known degree of in source fragmentation, where the initially formed multiply charged negative ions lose one or more SO3 molecules. The most abundant of these secondary ions are then subjected to a common MS/MS experiment in which a single SO3 loss is monitored. The Q1 and Q3 mass filter settings for this MS/MS experiment have commonly been determined in method development. […] Internal standardization is accomplished by adding a different conjugate of approximately the same size to the bioanalytical samples.
The rate of compound loss is expressed as a half-life (plasma t^1/2). The t^1/2 for the test compound can be determined by plotting the natural logarithm (In) of the measured concentrations against time and fitting the line through all data points. The gradient of this line is the first order rate constant (k) for substrate disappearance and is determined by regression analysis. The rate constant is converted to a half-life according to the following equation: In vitro half-life(t^1/2)=−ln 2/k

[3] = after clomiphene citrate treatment; cited from earlier work

| Compound | half-life in human plasma [1] [min] | EC50 (human KISS-receptor; absence of human serum, read-out: pEC50 (converted)) [nM] | EC50 (human KISS-receptor; presence of 20% human serum, read-out: pEC50 serum (converted)) [nM] | stability (in words) [2] | ovulation rates [3] | pregnancy rates [3] |
| --- | --- | --- | --- | --- | --- | --- |
| CC(C)C[C@H](NC(=O)CNC(=O)[C@H](Cc1ccccc1)NC(=O)[C@H](CO)NC(=O)[C@H](CC(N)=O)NC(=O)[C@H](Cc1c[nH]c2ccccc12)NC(=O)[C@H](CC(N)=O)NC(=O)[C@@H](N)Cc1ccc(O)cc1)C(=O)N[C@@H](CCCNC(=N)N)C(=O)N[C@@H](Cc1ccccc1)C(N)=O [Kiss-10, reference compound] | ~10 | 1 | 1 | not sufficiently stable | – | – |
| CCN(CC)CCOc1ccc(C(=C(Cl)c2ccccc2)c2ccccc2)cc1 [clomiphene citrate] | – | – | – | – | 60%-90% | 20%-40% |
